Reference: US12397045B2, “Clostridioides difficile” (IMPERIAL COLLEGE OF SCIENCE, TECHNOLOGY AND MEDICINE, priority 2018, dated 2025)

Assays:
[1] = system: colonocyte cell line Caco2; assay: MTT viability assay of Caco2 cells; assay type: cell-based; conditions: 45 mM, 48 h
Description: A higher OD value represents greater viability.
The inventors determined to what extent the C5, C6 and C7 chain length fatty acids affect viability of the colonocyte cell line Caco2. Caco2 cells were grown until confluent in DMEM with serum and then trypsinised and diluted to 10^5 cells per ml and re-seeded into a 24 well plate and allowed to grow for a further 48 hours. At this point they were exposed to a 45 mM concentration of the SCFA or MCFA for 48 h and viability assessed using an MT assay.

C. difficile = assay: Growth inhibition of C. difficile with 20 mM short or medium chain fatty acids; assay type: cell-based, Clostridioides difficile; conditions: 20 mM fatty acid
Text: Acetate is a C2 chain and they increase by one carbon until heptanoate is reached which is C7.
The inventors assessed a range of short/medium chain fatty acids (S/MCFA).

[2] = system: C. difficile ribotype 027; assay: C. difficile batch cultures, vegetative growth with valerate (OD600); assay type: cell-based, Clostridioides difficile; conditions: sBHI broth pH 6.8, p=0.008
Description: (§1) Vegetative cells were inoculated into sBHI broth containing varying concentrations of valerate (o, 1, 2, 3, 4, 5, 10, and 20 mM) and OD600 measurements were taken at 0, 2, 4, 6, and 8 hours. The change in OD600 (from a time point during the exponential phase) was plotted against the concentrations of valerate tested. (a) C. difficile ribotype 010, (b) C. difficile ribotype 012, (c) C. difficile ribotype 027, (d) Bacteroides uniformis, (e) Bacteroides vulgatus, (f) Clostridium scindens. Error bars represent the mean standard deviation, * p<0.05, ** p<0.01, *** p<0.001.
(§2) The inventors tested the effects of valerate (Fisher Scientific) on the vegetative growth of three C. difficile ribotypes (010, 012, and 027) as well as several gut commensal bacteria (Bacteroides uniformis, Bacteroides vulgatus, and Clostridium scindens). […] The inventors plotted the changes in OD600 (from a time point during the exponential phase) against each concentration of valerate tested. The inventors used ANOVA and Tukey post hoc test to determine whether the concentration of valerate tested affected the growth of the test isolate compared to batch cultures grown in the absence of valerate.
(§3) C. difficile DS1684 (ribotype 010, non-toxigenic strain) was used for chemostat model experiments. C. difficile DS1684, C. difficile CD630 (ribotype 012, virulent multidrug resistant strain), C. difficile R20291 (ribotype 027, a hypervirulent strain), Bacteroides uniformis, Bacteroides vulgatus, and Clostridium scindens (DSM 5676) were used in batch culture experiments. C. difficile ribotype 027 is a common ribotype in Europe and North America,^1-3 while ribotype 012 is one of the common ribotypes in mainland China.^4,5 CD630 and R20291 are genetically and phenotypically well-characterised and are good representatives of their ribotypes.^6 B. uniformis and B. vulgatus were isolated from the stool of a healthy person using fastidious anaerobe agar (Lab M, Heywood, UK) or nutrient agar (Sigma-Aldrich, St. Louis, USA), respectively.

[3] = system: C. difficile ribotype 010; assay: as above; assay type: cell-based, Clostridioides difficile; conditions: sBHI broth pH 6.8, p=0.008
Description: as §1, §2, §3

[4] = system: C. difficile ribotype 012; assay: as above; assay type: cell-based, Clostridioides difficile; conditions: sBHI broth pH 6.8, p=0.003
Description: as §1, §2, §3

[5] = system: 6 strains of C. difficile; assay: Valerate inhibition of 6 strains of C. difficile (change in OD600); assay type: cell-based, Clostridioides difficile; conditions: 0, 5, 10, 20 mM valerate
Text: Error bars represent mean±SD. **p<0.01;[…] (ANOVA and Tukey post hoc test), N=12.
As there are many strains of the C. difficile pathogen, the inventors extended the range of strains to determine how valerate inhibited growth (FIG. 32), and have also assessed the ability of valerate to target other species of bacteria (FIG. 33).

gut organoids = conditions: 5 mM valerate; personal communication; cited from earlier work
CD010 = assay: Isovalerate inhibition of C. difficile growth; assay type: cell-based, Clostridioides difficile; conditions: strain CD010
Text: (§4) The inventors tested the ability of isovalerate to inhibit C. difficile growth (FIG. 36).

CD012 = assay: Isovalerate inhibition of C. difficile growth; assay type: cell-based, Clostridioides difficile; conditions: strain CD012
Text: as §4

Bacteroides uniformis = assay: Batch cultures of gut commensal with valerate (OD600); assay type: cell-based; conditions: only concentration that inhibited, p=0.026
Description: as §1, §2, §3

Clostridium scindens = assay: as above; assay type: cell-based; conditions: 0-20 mM valerate tested, p>0.05
Description: as §1, §2, §3

Bacteroides vulgatus = assay: as above; assay type: cell-based
Description: as §1, §2, §3

CD 027 = assay: Isovalerate inhibition of C. difficile growth; assay type: cell-based, Clostridioides difficile; conditions: strain CD 027
Text: as §4

| SMILES | viability of colonocytes [1] | viability of colonocytes ([1]; listed as C6) | inhibition of C. difficile growth (C. difficile) | potency at inhibiting growth relative to valerate (C. difficile) | valerate concentration inhibiting vegetative growth [2] | valerate concentration inhibiting vegetative growth [3] | valerate concentration inhibiting vegetative growth [4] | inhibition of growth of C. difficile strains [5] | cell death / alterations in gene expression (gut organoids) | inhibition of C. difficile growth (CD010) | inhibition of C. difficile growth (CD012) | valerate concentration inhibiting growth (Bacteroides uniformis) | inhibition of growth by valerate (Clostridium scindens) | inhibition of growth by valerate (Bacteroides vulgatus; 0-20 mM valerate tested) | growth in broths containing valerate (Bacteroides vulgatus; 10 mM (p=0.020) or 20 mM (p=0.019) valerate) | inhibition of C. difficile growth (CD 027) |
| --- | --- | --- | --- | --- | --- | --- | --- | --- | --- | --- | --- | --- | --- | --- | --- | --- |
| CCCCCC(=O)O [hexanoate, hexanoic acid] | significantly increased | do not significantly decrease | potent inhibitors | significantly more potent |  |  |  |  |  |  |  |  |  |  |  |  |
| CCCCC(=O)O [valerate, valeric acid] | do not significantly decrease |  | potent inhibitors |  | 2 mM | 4 mM | 2 mM | effective against all strains | did not result in cell death or cause significant alterations in gene expression | inhibited to a greater extent | inhibited to a greater extent | 20 mM | not inhibited at any concentration | not inhibited at any concentration | grew better |  |
| CCCCCCC(=O)O [heptanoate, heptanoic acid] | do not significantly decrease |  | potent inhibitors | significantly more potent |  |  |  |  |  |  |  |  |  |  |  |  |
| CC(C)CC(=O)O [isovalerate] |  |  |  |  |  |  |  |  |  | significant ability to inhibit growth | significant ability to inhibit growth |  |  |  |  | comparable to valerate |
